Our source for the IC50 values is patent publication US20230365563A1, “QUINAZOLINE COMPOUND AND APPLICATION THEREOF” (SHANGHAI PHARMACEUTICALS HOLDING CO., LTD., priority 2020, published 2023).

One experiment addresses T1, KRAS_G12D and cRAF (Homo sapiens, UniProt P01116, G12D).
T1 construct: purchased
Nature of the experiment: Inhibition of KRAS_G12D/cRAF binding (Cisbio binding kit, 665/615 ratio), Effect Embodiment B. The settings on record: read-out: GTP-KRAS-G12D:CRAF IC50. How it is done:
(§1) Similarly, the first dilution point of the compound to be tested was its storage solution, and the solution was 3-fold diluted, with 11+0 points of dilution. Echo was used to transfer 0.2 μL gradient diluted solution of the compounds into a 384-well plate, with 2 duplicated wells for each compound, and the final concentration of DMSO was 1%. The solution was centrifuged for 1 min at 1000 rpm/min.
(§2) IC50 of the compounds was fitted by Graphpad Prism 8 nonlinear regression equation: […]
(§3) The IC50 (half inhibitory concentration) of the compound was obtained by using the following nonlinear fitting formula: […]

For another experiment, the target named is T2, KRAS_WT and SOS1 (Homo sapiens, UniProt P01116).
T2 construct: purchased
T2 sequence (P01116 1-188 isoform P01116-2): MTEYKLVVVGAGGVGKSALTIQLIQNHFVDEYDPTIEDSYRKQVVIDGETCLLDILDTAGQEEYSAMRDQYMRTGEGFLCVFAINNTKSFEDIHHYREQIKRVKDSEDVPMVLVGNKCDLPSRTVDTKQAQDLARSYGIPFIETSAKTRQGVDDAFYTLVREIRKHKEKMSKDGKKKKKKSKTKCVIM
The experiment is described as follows: Inhibition of KRAS_WT/SOS1 binding (Cisbio binding kit, 665/615 ratio), Effect Embodiment C. The settings on record: read-out: GTP-KRAS-WT:SOS1 IC50. How it is done: The inhibitory ability of small molecule compounds on the binding activity of KRAS_WT and SOS1 was examined by a drug screening system based on the combination of KRAS_WT and SOS1.
as §1, §2, §3

The next experiment addresses T3, KRAS-G12D and SOS1 (Homo sapiens, UniProt P01116, G12D).
T3 construct: purchased
The experiment is described as follows: Inhibition of KRAS-G12D/SOS1 binding (Cisbio binding kit, 665/615 ratio), Effect Embodiment A. Conditions: read-out: GTP-KRAS-G12D:SOS1 IC50. In a few lines: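 Test compounds were serially diluted 3-fold from the storage solution over 11 points and dispensed in duplicate wells at 1% final DMSO.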

One may read the IC50 as the point on the concentration scale where inhibition reaches its midpoint.

Molecules are shown by their SMILES. Counter-ions that a name gives are not always drawn.

T3 sequence (P01116 1-188 isoform P01116-2 G12D): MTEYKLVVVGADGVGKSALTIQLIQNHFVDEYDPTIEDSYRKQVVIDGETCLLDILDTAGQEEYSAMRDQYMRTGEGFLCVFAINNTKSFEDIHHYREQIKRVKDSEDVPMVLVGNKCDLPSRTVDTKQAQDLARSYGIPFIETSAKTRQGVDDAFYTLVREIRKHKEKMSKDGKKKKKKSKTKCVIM
T1 sequence (P01116 1-188 isoform P01116-2 G12D): as above

Turning to `CN(C)C1CN(c2nc(N3C[C@@H]4C[C@H]3CN4)c3cc(Cl)c(-c4cc(O)cc5ccccc45)c(F)c3n2)C1` (single isomer, unassigned) [Compound 2a, (R or S)-4-(4-((1S,4S)-2,5-diazabicyclo [2.2.1]heptan-2-yl)-6-chloro-2-(3-(dimethylamino)azetidin-1-yl)-8-fluoro-quinazolin-7-yl)naphthalen-2-ol], the IC50 was determined as 589 nM on KRAS_G12D and cRAF; 9750 nM on KRAS_WT and SOS1; 248 nM at KRAS-G12D and SOS1.

As to `CN(C)C1CN(c2nc(N3C[C@@H]4CC[C@H]3CN4)c3cc(Cl)c(-c4cc(O)cc5ccccc45)c(F)c3n2)C1` (single isomer, unassigned) [Compound 4a, (R or S)-4-(4-((1S,4S)-2,5-diazabicyclo [2.2.2]octan-2-yl)-6-chloro-2-(3-(dimethylamino)azetidin-1-yl)-8-fluoro-quinazolin-7-yl)naphthalen-2-ol], the half-maximal inhibitory concentration (IC50) at KRAS_G12D and cRAF was 213 nM; at KRAS_WT and SOS1, 401 nM; at KRAS-G12D and SOS1 it was 36.9 nM.

Consider `CN(C)C1CN(c2nc(N3C[C@H]4CC[C@@H](C3)N4)c3cc(Cl)c(-c4cc(O)cc5ccccc45)c(F)c3n2)C1` (single isomer, unassigned) [Compound 5a, (R or S)-4-(4-((1R,5S)-3,8-diazabicyclo [3.2.1]octan-3-yl)-6-chloro-2-(3-(dimethylamino)azetidin-1-yl)-8-fluoro-quinazolin-7-yl)naphthalen-2-ol], for which the IC50 came out at 251 nM at KRAS_G12D and cRAF; 1810 nM at KRAS_WT and SOS1; 41.4 nM at KRAS-G12D and SOS1.

With `CN(C)C1CN(c2nc(N3[C@@H]4CC[C@H]3CNC4)c3cc(Cl)c(-c4cc(O)cc5ccccc45)c(F)c3n2)C1` (single isomer, unassigned) [Compound 6a, (R or S)-4-(4-((1R,5S)-3,8-diazabicyclo [3.2.1]octan-8-yl)-6-chloro-2-(3-(dimethylamino)azetidin-1-yl)-8-fluoro-quinazolin-7-yl)naphthalen-2-ol], the IC50 on KRAS_G12D and cRAF worked out at 66 nM; on KRAS_WT and SOS1, 293 nM; at KRAS-G12D and SOS1 it was 66.4 nM.

With `CN(C)C1CN(c2nc(N3CC4(CNC4)C3)c3cc(Cl)c(-c4cc(O)cc5ccccc45)c(F)c3n2)C1` (single isomer, unassigned) [Compound 7a, (R or S)-4-(6-chloro-2-(3-(dimethylamino)azetidin-1-yl)-8-fluoro-4-(2,6-diazaspiro[3.3]heptan-2-yl)quinazolin-7-yl)naphthalen-2-ol], the IC50 on KRAS_G12D and cRAF amounted to 3330 nM; at KRAS_WT and SOS1, 15900 nM; on KRAS-G12D and SOS1 it was 278 nM.

Turning to `CN(C)C1CN(c2nc(N3CC4(CCNC4)C3)c3cc(Cl)c(-c4cc(O)cc5ccccc45)c(F)c3n2)C1` (single isomer, unassigned) [Compound 8a, (R or S)-4-(6-chloro-2-(3-(dimethylamino)azetidin-1-yl)-8-fluoro-4-(2,6-diazaspiro[3.4]octan-2-yl)quinazolin-7-yl)naphthalen-2-ol], the 50% inhibitory concentration (IC50) on KRAS_G12D and cRAF was determined as 1170 nM; on KRAS_WT and SOS1, 5340 nM; at KRAS-G12D and SOS1 it was 461 nM.

On to `CN(C)C1CN(c2nc(N3CC4(CCNCC4)C3)c3cc(Cl)c(-c4cc(O)cc5ccccc45)c(F)c3n2)C1` (single isomer, unassigned) [Compound 10a, (R or S)-4-(6-chloro-2-(3-(dimethylamino)azetidin-1-yl)-8-fluoro-4-(2,7-diazaspiro[3.5]nonan-2-yl)quinazolin-7-yl)naphthalen-2-ol], for which the IC50 on KRAS_G12D and cRAF was 3230 nM; on KRAS_WT and SOS1, 10300 nM; at KRAS-G12D and SOS1 it was 780 nM.

Take `CN(C)C1CN(c2nc(N3CCNCC34CC4)c3cc(Cl)c(-c4cc(O)cc5ccccc45)c(F)c3n2)C1` (single isomer, unassigned) [Compound 19a, (R or S)-4-(6-chloro-2-(3-(dimethylamino)azetidin-1-yl)-8-fluoro-4-(4,7-diazaspiro[2.5]octan-4-yl)quinazolin-7-yl)naphthalen-2-ol]: the IC50 came out at 1630 nM at KRAS_G12D and cRAF; 9420 nM at KRAS_WT and SOS1; 898 nM on KRAS-G12D and SOS1.

On to `CN(C)C1CN(c2nc(N3C4CC5CC3CC(C4)N5)c3cc(Cl)c(-c4cc(O)cc5ccccc45)c(F)c3n2)C1` (single isomer, unassigned) [Compound 34, 4-((S or R)-4-(2,6-diazaadamantan-2-yl)-6-chloro-2-(3-(dimethylamino)azetidin-1-yl)-8-fluoroquinazolin-7-yl)naphthalen-2-ol], for which the half-inhibitory concentration (IC50) on KRAS_WT and SOS1 worked out at 279 nM; on KRAS-G12D and SOS1 it was 188 nM.

`CN(C)C1CN(c2nc(N3CCC4NCCC43)c3cc(Cl)c(-c4cc(O)cc5ccccc45)c(F)c3n2)C1` (single isomer, unassigned) [Compound 36, 4-((S or R)-6-chloro-2-(3-(dimethylamino)azetidin-1-yl)-8-fluoro-4-((3aS,6aS or 3aR,6aR)-hexahydropyrrolo [3,2-b]pyrrole-1(2H)-yl)quinazolin-7-yl)naphthalen-2-ol]: the IC50 on KRAS_WT and SOS1 was more than 100000 nM; at KRAS-G12D and SOS1, 277 nM.

As to `CC(F)(COc1nc(N2CC3CCC(C2)N3)c2cc(Cl)c(-c3cc(O)cc4ccccc34)c(F)c2n1)CN1C2CCC1COC2` (single isomer, unassigned) [Compound 208b, (4S or 4R)-4-(2-((2(S or R)-3-(3-oxa-8-azabicyclo[3.2.1]octan-8-yl)-2-fluoro-2-methylpropoxy)-4-((1R,5S)-3,8-diazabicyclo[3.2.1]octan-3-yl)-6-chloro-8-fluoroquinazolin-7-yl)naphthalen-2-ol formate], the IC50 came to 272 nM on KRAS_G12D and cRAF; 97.5 nM on KRAS-G12D and SOS1.

With `Oc1cc(-c2c(Cl)cc3c(N4CC5CCC(C4)N5)nc(OCC(CN4C5CCC4COC5)C4CC4)nc3c2F)c2ccccc2c1` (single isomer, unassigned) [Compound 209b, 4-((7S or 7R))-2-(2(S or R))-3-(3-oxa-8-azabicyclo[3.2.1]octan-8-yl)-2-cyclopropylpropoxy)-4-((1R,5S)-3,8-diazabicyclo[3.2.1]octan-3-yl)-6-chloro-8-fluoroquinazolin-7-yl)naphthalen-2-ol diformate], the IC50 at KRAS_G12D and cRAF was 293 nM; on KRAS-G12D and SOS1 it was 90.9 nM.

Regarding `Oc1cc(-c2c(Cl)cc3c(N4CC5CCC(C4)N5)nc(OCC(CN4C5CCC4COC5)C(F)(F)F)nc3c2F)c2ccccc2c1` (single isomer, unassigned) [Compound 218a, 4-((7S or 7R)-2-((2S or 2R)-2-((3-oxa-8-azabicyclo[3.2.1]octan-8-yl)methyl)-3,3,3-trifluoropropoxy)-4-((1R,5S)-3,8-diazabicyclo[3.2.1]octan-3-yl)-6-chloro-8-fluoroquinazolin-7-yl)naphthalen-2-ol diformate], the IC50 was determined as 579 nM at KRAS_G12D and cRAF; 91.9 nM at KRAS-G12D and SOS1.

For `CC[C@@H]1CN(C[C@@H](C)COc2nc(N3CC4CCC(C3)N4)c3cc(Cl)c(-c4cc(O)cc5ccccc45)c(F)c3n2)C[C@H](CC)O1` (single isomer, unassigned) [Compound 219, 4-((S or R)-4-((1R,5S)-3,8-diazabicyclo[3.2.1]octan-3-yl)-6-chloro-2-((R)-3-((2R,6S)-2,6-diethylmorpholinyl)-2-methylpropoxy)-8-fluoroquinazolin-7-yl)naphthalen-2-ol formate], the IC50 at KRAS_G12D and cRAF came to 21.6 nM; on KRAS-G12D and SOS1, 17.4 nM.

For `C[C@@H](COc1nc(N2CC3CCC(C2)N3)c2cc(Cl)c(-c3cc(O)cc4ccccc34)c(F)c2n1)CN1C[C@H](C)O[C@@H](C)C1` (single isomer, unassigned) [Compound 220, 4-((S or R)-4-((1R,5S)-3,8-diazabicyclo[3.2.1]octan-3-yl)-6-chloro-2-((R)-3-((2S,6S)-2,6-dimethylmorpholinyl)-2-methylpropoxy)-8-fluoroquinazolin-7-yl)naphthalen-2-ol formate], the IC50 came out at 29.6 nM at KRAS_G12D and cRAF; 19.3 nM on KRAS-G12D and SOS1.

Take `C[C@@H](COc1nc(N2CC3CCC(C2)N3)c2cc(Cl)c(-c3cc(O)cc4ccccc34)c(F)c2n1)CN1C[C@@H](C)OC[C@@H]1C` (single isomer, unassigned) [Compound 226, 4-((S or R)-4-((1R,5S)-3,8-diazabicyclo[3.2.1]octan-3-yl)-6-chloro-2-((R)-3-((2R,5S)-2,5-dimethylmorpholinyl)-2-methylpropoxy)-8-fluoroquinazolin-7-yl)naphthalenol formate]: the half-maximal inhibitory concentration (IC50) on KRAS_G12D and cRAF turned out to be 154 nM; on KRAS-G12D and SOS1 it was 67.9 nM.

As for `C[C@@H](COc1nc(N2CC3CCC(C2)N3)c2cc(Cl)c(-c3cc(B(O)O)cc4ccccc34)c(F)c2n1)CN1C2CCC1COC2` (single isomer, unassigned) [Compound 256, (4-((7S or 7R)-2-((2R)-3-(3-oxa-8-azabicyclo[3.2.1]octan-8-yl)-2-methylpropoxy)-4-((1R,5S)-3,8-diazabicyclo[3.2.1]octan-3-yl)-6-chloro-8-fluoroquinazolin-7-yl)naphthalen-2-yl)boronic acid ditrifluoroacetate], the IC50 stood at 358 nM at KRAS_G12D and cRAF; 92.1 nM at KRAS-G12D and SOS1.

For `CN(C)C1CN(c2nc(N3C[C@H]4CC[C@@H](C3)N4)c3cnc(-c4cc(O)cc5ccccc45)c(F)c3n2)C1` [Compound 78, 4-(4-((1R,5S)-3,8-diazabicyclo[3.2.1]octan-3-yl)-2-(3-(dimethylamino)azetidin-1-yl)-8-fluoropyridine[4,3-d]pyrimidin-7-yl)naphthalen-2-ol], the IC50 on KRAS_WT and SOS1 worked out at 847 nM; at KRAS-G12D and SOS1, 44.2 nM.
